In patent US20230255906A1, “Targeting Serpin B9 in Cancer” (The Brigham and Women`s Hospital, Inc., priority 2020, published 2023):
Note: test concentration or dose not given here.

These molecules were tested on B16 melanoma cells (assay: Caspase-3 activity assay (EnzChek Caspase-3 Assay Kit), caspase-3 induction in tumor cells). Details: not given.
Format: cell-based, mouse
Description: The EnzChek® Caspase-3 Assay Kit was used to detect apoptosis by assaying for increases in caspase-3 activities. The basis for the assay was rhodamine 110 bis-(N-CBZ-L-aspartyl-L-glutamyl-L-valyl-L-aspartic acid amide) (Z-DEVD-R110). This substrate is a bisamide derivative of rhodamine 110 (R110) containing DEVD peptides covalently linked to each of R110's amino groups, thereby suppressing the dye's visible absorption and its fluorescence. Upon enzymatic cleavage, the nonfluorescent bisamide substrate is converted in a two-step process first to a fluorescent monoamide and then to an even more fluorescent R110.
At least 1×10^6 cells of the lysate were used for each reaction. B16 cells were treated with compounds to induce apoptosis. A negative control was prepared by incubating cells in the absence of compounds. The cells were incubated with compounds for 24 hrs and washed in PBS. Each cell sample or control was resuspended in 50 μL of the 1×cell lysis buffer. Cells were lysed by incubating on ice for 30 minutes, and the lysed cells were centrifuged to pellet the cellular debris. 50 μL of the supernatant was transferred from each sample to individual microplate wells. 50 μL of the 1× cell lysis buffer was used as a no-enzyme control to determine the background fluorescence of the substrate. 50 μL of the 2×substrate working solution was added to each sample and control. The microplate was covered, and the samples were incubated at room temperature for approximately 30 minutes. The fluorescence was measured by a fluorescence microplate reader (excitation/emission ˜496/520 nm) using excitation and emission filters.
The ability of this small molecule inhibitor to inhibit intracellular Sb9 was then evaluated. As a marker for cell penetration, the induction of caspase-3 activity in B16 melanoma cells as a surrogate marker for increased GrB activity was measured.
The induction of caspase-3 activity in B16 melanoma cells as a surrogate marker for increased GrB activity was also measured for other small molecules (compounds of Formulas (V) and (VI) as described herein).
For `O=C(c1ccc2oc(-c3ccc(C(F)(F)F)cc3)nc2c1)N1CCOCC1` [5-(4-morpholinylcarbonyl)-2-[4-(trifluoromethyl)phenyl]-1,3-benzoxazole], the “Ratio of caspase-3 activity to Formula (III)” value (shortened to “Ratio of caspase-3 activity”) was 0.1317.
In the case of `CCN1CCN(C(=O)c2ccc3oc(-c4cccc(F)c4)nc3c2)CC1` [5-[(4-ethyl-1-piperazinyl)carbonyl]-2-(3-fluorophenyl)-1,3-benzoxazole], the “Ratio of caspase-3 activity” value is reported as 0.6541.
In the case of `COCC1CCN(C(=O)c2ccc3oc(-c4ccc(C(F)(F)F)cc4)nc3c2)C1` (centres unmarked) [5-{[3-(methoxymethyl)-1-pyrrolidinyl]carbonyl}-2-[4-(trifluoromethyl)phenyl]-1,3-benzoxazole], the “Ratio of caspase-3 activity” value is reported as 0.1424.
For `COc1cccc(-c2nc3ccc(C(=O)N4CCS(=O)(=O)CC4)cc3o2)c1` [6-[(1,1-dioxidothiomorpholin-4-yl)carbonyl]-2-(3-methoxyphenyl)-1,3-benzoxazole], the “Ratio of caspase-3 activity” value was 0.7081.
`COc1cccc(-c2nc3ccc(C(=O)N4CCN(C5CCCC5)CC4)cc3o2)c1` [6-[(4-cyclopentyl-1-piperazinyl)carbonyl]-2-(3-methoxyphenyl)-1,3-benzoxazole] was tested, and the “Ratio of caspase-3 activity” value was 0.1582.
`O=C(c1ccc2nc(-c3ccccc3)oc2c1)N1CCC12CCOC2` (centres unmarked) [6-{6-oxa-1-azaspiro[3.4]octane-1-carbonyl}-2-phenyl-1,3-benzoxazole] was tested, and the “Ratio of caspase-3 activity” value was 1.434.
With `O=C(c1ccc2oc(-c3cccc(F)c3)nc2c1)N1CCCCC1CO` (centres unmarked) [(1-{[2-(3-fluorophenyl)-1,3-benzoxazol-5-yl]carbonyl}-2-piperidinyl)methanol] the “Ratio of caspase-3 activity” value was 1.133.
`O=C(c1ccc2oc(-c3ccc(C(F)(F)F)cc3)nc2c1)N1CC[C@H](O)C1` [(3S)-1-({2-[4-(trifluoromethyl)phenyl]-1,3-benzoxazol-5-yl}carbonyl)-3-pyrrolidinol] was tested, and the “Ratio of caspase-3 activity” value was 0.1382.
For `CCN1CCN(C(=O)c2ccc3nc(-c4cccc(OC)c4)oc3c2)[C@@H](C)C1=O` [(3S)-1-ethyl-4-{[2-(3-methoxyphenyl)-1,3-benzoxazol-6-yl]carbonyl}-3-methyl-2-piperazinone], the “Ratio of caspase-3 activity” value was 0.1434.
`CCN(CC)C(=O)C1CCCN(C(=O)c2ccc3nc(-c4cccc(OC)c4)oc3c2)C1` (centres unmarked) [N,N-diethyl-1-{[2-(3-methoxyphenyl)-1,3-benzoxazol-6-yl]carbonyl}-3-piperidinecarboxamide] was tested, and the “Ratio of caspase-3 activity” value was 0.1463.
With `O=C(NC1C=CS(=O)(=O)C1)c1ccc2oc(-c3cccc(F)c3)nc2c1` (centres unmarked) [N-(1,1-dioxido-2,3-dihydro-3-thienyl)-2-(3-fluorophenyl)-1,3-benzoxazole-5-carboxamide] the “Ratio of caspase-3 activity” value was 0.09701.
With `CN(CC(O)CO)C(=O)c1ccc2oc(-c3ccc(C(F)(F)F)cc3)nc2c1` (centres unmarked) [N-(2,3-dihydroxypropyl)-N-methyl-2-[4-(trifluoromethyl)phenyl]-1,3-benzoxazole-5-carboxamide] the “Ratio of caspase-3 activity” value was 0.135.
`O=C1CCC(NC(=O)c2ccc3nc(-c4ccccc4)oc3c2)C(=O)N1` (centres unmarked) [N-(2,6-dioxopiperidin-3-yl)-2-phenyl-1,3-benzoxazole-6-carboxamide] was tested, and the “Ratio of caspase-3 activity” value was 0.6989.
With `COc1cccc(-c2nc3ccc(C(=O)N(C)CC(O)c4ccccc4)cc3o2)c1` (centres unmarked) [N-(2-hydroxy-2-phenylethyl)-2-(3-methoxyphenyl)-N-methyl-1,3-benzoxazole-6-carboxamide] the “Ratio of caspase-3 activity” value was 0.1589.
With `O=C(NCCO)c1ccc2oc(-c3ccc(C(F)(F)F)cc3)nc2c1` [N-(2-hydroxyethyl)-2-[4-(trifluoromethyl)phenyl]-1,3-benzoxazole-5-carboxamide] the “Ratio of caspase-3 activity” value was 0.3843.
In the case of `CC(C)N(CCO)C(=O)c1ccc2oc(-c3ccc(C(F)(F)F)cc3)nc2c1` [N-(2-hydroxyethyl)-N-isopropyl-2-[4-(trifluoromethyl)phenyl]-1,3-benzoxazole-5-carboxamide], the “Ratio of caspase-3 activity” value is reported as 0.1324.
With `CC(O)CNC(=O)c1ccc2oc(-c3ccc(C(F)(F)F)cc3)nc2c1` (centres unmarked) [N-(2-hydroxypropyl)-2-[4-(trifluoromethyl)phenyl]-1,3-benzoxazole-5-carboxamide] the “Ratio of caspase-3 activity” value was 0.0922.
For `COc1cccc(-c2nc3ccc(C(=O)NCC(C)(C)CO)cc3o2)c1` [N-(3-hydroxy-2,2-dimethylpropyl)-2-(3-methoxyphenyl)-1,3-benzoxazole-6-carboxamide], the “Ratio of caspase-3 activity” value was 0.6716.
For `O=C(NCCCO)c1ccc2oc(-c3ccc(C(F)(F)F)cc3)nc2c1` [N-(3-hydroxypropyl)-2-[4-(trifluoromethyl)phenyl]-1,3-benzoxazole-5-carboxamide], the “Ratio of caspase-3 activity” value was 1.003.
With `CC1(C)CC(NC(=O)c2ccc3nc(-c4ccccc4)oc3c2)CO1` (centres unmarked) [N-(5,5-dimethyloxolan-3-yl)-2-phenyl-1,3-benzoxazole-6-carboxamide] the “Ratio of caspase-3 activity” value was 0.09307.

Same assay, conditions: relative to compound of Formula (III)
`O=C(c1ccc2nc(S)oc2c1)N1CCCC1` [6-(pyrrolidine-1-carbonyl)-1,3-benzoxazole-2-thiol] was tested, and the “Caspase-3 induction, Normalized to Formula (III) (%)” value was −30.7254%.
For `O=C(c1ccc2nc(C(F)(F)F)oc2c1)N1CCCC1` [6-(pyrrolidine-1-carbonyl)-2-(trifluoromethyl)-1,3-benzoxazole], the “Caspase-3 induction, Normalized to Formula (III) (%)” value was −71.4007%.
In the case of `O=C(c1cc2c(cc1O)OCO2)N1CCCC1` [6-(pyrrolidine-1-carbonyl)-2H-1,3-benzodioxol-5-ol], the “Caspase-3 induction, Normalized to Formula (III) (%)” value is reported as −35.7785%.
With `CC(C)CNC(=O)c1cc2c(cc1O)OCO2` [6-hydroxy-N-(2-methylpropyl)-2H-1,3-benzodioxole-5-carboxamide] the “Caspase-3 induction, Normalized to Formula (III) (%)” value was −31.2294%.
`COCCCNC(=O)c1cc2c(cc1O)OCO2` [6-hydroxy-N-(3-methoxypropyl)-2H-1,3-benzodioxole-5-carboxamide] was tested, and the “Caspase-3 induction, Normalized to Formula (III) (%)” value was −41.8942%.
With `CN(C)c1nc2c(C(=O)N3CCCC3)cccc2o1` [N,N-dimethyl-4-(pyrrolidine-1-carbonyl)-1,3-benzoxazol-2-amine] the “Caspase-3 induction, Normalized to Formula (III) (%)” value was −22.9856%.
`CN(C)c1nc2cccc(C(=O)N3CCCC3)c2o1` [N,N-dimethyl-7-(pyrrolidine-1-carbonyl)-1,3-benzoxazol-2-amine] was tested, and the “Caspase-3 induction, Normalized to Formula (III) (%)” value was −21.0312%.
For `COCCCNC(=O)c1ccc2nc(C(F)(F)C(F)(F)F)oc2c1` [N-(3-methoxypropyl)-2-(1,1,2,2,2-pentafluoroethyl)-1,3-benzoxazole-6-carboxamide], the “Caspase-3 induction, Normalized to Formula (III) (%)” value was −23.2124%.
With `COCCCNC(=O)c1ccc2nc(C3CCCO3)oc2c1` (centres unmarked) [N-(3-methoxypropyl)-2-(oxolan-2-yl)-1,3-benzoxazole-6-carboxamide] the “Caspase-3 induction, Normalized to Formula (III) (%)” value was −69.878%.
In the case of `COCCCNC(=O)c1cccc2oc(C)nc12` [N-(3-methoxypropyl)-2-methyl-1,3-benzoxazole-4-carboxamide], the “Caspase-3 induction, Normalized to Formula (III) (%)” value is reported as −70.4086%.
With `COCCCNC(=O)c1ccc2nc(S)oc2c1` [N-(3-methoxypropyl)-2-sulfanyl-1,3-benzoxazole-6-carboxamide] the “Caspase-3 induction, Normalized to Formula (III) (%)” value was 15.2459%.
In the case of `COc1cc(C(=O)NCC2CCCC2)ccc1OCCC(C)C` [N-(cyclopentylmethyl)-3-methoxy-4-(3-methylbutoxy)benzamide], the “Caspase-3 induction, Normalized to Formula (III) (%)” value is reported as −50.1028%.
